Experimental data from US6770676B2, “Dicarboxylic acid derivatives” (Taisho Pharmaceutical Co., Ltd., priority 2000, dated 2004).

What was measured:
[1] = target: T1, metabotropic glutamate receptors mGluR2 (Rattus norvegicus, UniProt P31421); assay: Effects of test compounds on cAMP accumulation (antagonism of glutamic acid suppression of Forskolin-stimulated cAMP) in CHO cells expressing mGluR2; assay type: cell-based; settings: CHO cells stably expressing mGluR2; 50% inhibition of suppression by 30 μM glutamic acid of cAMP increase by 10^-5 M Forskolin; cAMP EIA kit
T1 construct: expressed in transfected cells
T1 sequence (P31421 19-872): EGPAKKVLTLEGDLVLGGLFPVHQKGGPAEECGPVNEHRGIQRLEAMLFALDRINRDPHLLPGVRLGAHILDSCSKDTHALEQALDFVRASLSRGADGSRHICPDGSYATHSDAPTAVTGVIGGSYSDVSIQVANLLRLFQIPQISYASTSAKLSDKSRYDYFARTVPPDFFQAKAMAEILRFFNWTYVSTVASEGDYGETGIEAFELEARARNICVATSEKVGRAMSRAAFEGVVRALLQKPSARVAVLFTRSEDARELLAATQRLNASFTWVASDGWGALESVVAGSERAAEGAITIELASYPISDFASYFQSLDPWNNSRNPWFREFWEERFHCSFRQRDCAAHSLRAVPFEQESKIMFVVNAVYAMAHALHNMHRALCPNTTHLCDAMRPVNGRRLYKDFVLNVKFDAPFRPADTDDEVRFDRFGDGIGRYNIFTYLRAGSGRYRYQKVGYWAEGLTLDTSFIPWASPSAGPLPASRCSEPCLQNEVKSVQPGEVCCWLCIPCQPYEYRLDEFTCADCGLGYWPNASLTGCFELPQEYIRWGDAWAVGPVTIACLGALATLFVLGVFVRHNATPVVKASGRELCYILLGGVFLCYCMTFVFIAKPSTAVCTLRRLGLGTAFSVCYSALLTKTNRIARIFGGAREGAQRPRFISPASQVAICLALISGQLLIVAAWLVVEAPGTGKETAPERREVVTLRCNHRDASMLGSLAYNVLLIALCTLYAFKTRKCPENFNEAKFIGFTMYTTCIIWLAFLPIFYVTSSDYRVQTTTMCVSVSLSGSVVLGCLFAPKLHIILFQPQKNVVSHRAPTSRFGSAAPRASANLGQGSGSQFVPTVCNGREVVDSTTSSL
Method: Experimental Example (Effects of Test Compounds on cAMP Accumulation)
CHO cells stably expressing metabotropic glutamate receptors mGluR2 were seeded in a 96-well plate in the ratio of 1.26×10^4 cells/well/0.32 cm^2/150 μl in Dalbeco-modified Eagle medium [1% proline, 50 units/ml penicillin, 50 μg/ml streptomycin, 2 mM L-glutamine (added when used)] containing 10% dialyzed fetal bovine serum, and were cultured for 2 days at 37° C. under an atmosphere of 5% CO2. Subsequently, the medium was replaced with an L-glutamine free medium. Four hours later, the supernatant liquid was aspirated. […] A study was carried out for the antagonistic effects of the test compounds on the Forskolin stimulation cAMP accumulation quantity suppression [for control, the conditions were set with no addition of the compounds (Tanabe et al., Neuron, 8, 169-179 (1992))]. The reactions were quenched by adding 100 μl of ice-cooled ethanol, the entire quantity of the supernatant liquid was collected in a separate plate, and was subsequently dried up at normal temperature with an evaporator, followed by preservation at −20° C. In the dried-up samples, the quantity of cAMP was measured using a cAMP EIA kit (from the Amasham company). The control value was subtracted from each cAMP quantity. […]

In the case of `N[C@@]1(C(=O)O)C=C[C@@H]2[C@H]1[C@@]2(F)C(=O)O` [Example 7, (1R,2S,5R,6R)-2-amino-6-fluoro-bicyclo[3.1.0]hex-3-ene-2,6-dicarboxylic acid], the melting point is reported as > 174 °C (dec.).
With `N[C@@]1(C(=O)O)[C@H](O)C[C@@H]2[C@H]1[C@@]2(F)C(=O)O` [Example 8, (1R,2R,3R,5R,6R)-2-amino-6-fluoro-3-hydroxy-bicyclo[3.1.0]hexane-2,6-dicarboxylic acid] the IC50 [1] was 476 nM and the melting point was > 172 °C (dec.).
